Consider six compounds from ChEMBL document CHEMBL5346877, “A-ring-fused pyrazoles of dihydrotestosterone targeting prostate cancer cells via the downregulation of the androgen receptor” (Eur J Med Chem, 2023).

Calls of active or inactive are those of the source. The rule behind the calls is not given here.

One assay has as its system LAPC4. Description: Inhibition of colony formation in human LAPC4 cells at 10 uM incubated for 10 days by crystal violet staining based assay. In kind it is functional. The following applies: LAPC4, 240 h, time 10 day.
In general, inhibition refers to how much of the control response was suppressed. For the compound `Cc1c2c(nn1-c1ccc(Br)cc1)C[C@@H]1CC[C@@H]3[C@H](CC[C@]4(C)[C@@H](O)CC[C@@H]34)[C@@]1(C)C2`, testing at 10 µM gave an inhibition of 5%.
The same measure, in the same setting: to `Cc1ccc(-c2c3c(nn2C)C[C@@H]2CC[C@@H]4[C@H](CC[C@]5(C)[C@@H](O)CC[C@@H]45)[C@@]2(C)C3)cc1` belongs 28%.
Take `Cn1nc2c(c1-c1cccs1)C[C@@]1(C)[C@@H](CC[C@@H]3[C@@H]1CC[C@]1(C)C(=O)CC[C@@H]31)C2`: the inhibition at 10 µM is 4%.
In turn, `Cc1ccc(-c2c3c(nn2C)C[C@@H]2CC[C@@H]4[C@H](CC[C@]5(C)C(=O)CC[C@@H]45)[C@@]2(C)C3)cc1` showed an inhibition at 10 µM of 23%.
On the same count and under the same terms, in the case of `Cc1c2c(nn1-c1ccc([N+](=O)[O-])cc1)C[C@@H]1CC[C@@H]3[C@H](CC[C@]4(C)C(=O)CC[C@@H]34)[C@@]1(C)C2` it was 26%; in that of `Cc1ccc(-n2nc3c(c2C)C[C@@]2(C)[C@@H](CC[C@@H]4[C@@H]2CC[C@]2(C)[C@@H](O)CC[C@@H]42)C3)cc1`, 2%.

In a further assay the test system is LAPC4. Description: Inhibition of colony formation in human LAPC4 cells at 5 uM incubated for 10 days by crystal violet staining based assay. The format is functional, cell-based. The following applies: time 10.0 day.
Regarding `Cc1c2c(nn1-c1ccc(Br)cc1)C[C@@H]1CC[C@@H]3[C@H](CC[C@]4(C)[C@@H](O)CC[C@@H]34)[C@@]1(C)C2`, the inhibition result was “Active”.
With `Cc1ccc(-c2c3c(nn2C)C[C@@H]2CC[C@@H]4[C@H](CC[C@]5(C)[C@@H](O)CC[C@@H]45)[C@@]2(C)C3)cc1`, the inhibition result was “Active”.
On the same count and under the same terms, to `Cn1nc2c(c1-c1cccs1)C[C@@]1(C)[C@@H](CC[C@@H]3[C@@H]1CC[C@]1(C)C(=O)CC[C@@H]31)C2` belongs “Active”; to `Cc1ccc(-c2c3c(nn2C)C[C@@H]2CC[C@@H]4[C@H](CC[C@]5(C)C(=O)CC[C@@H]45)[C@@]2(C)C3)cc1`, “Active”.
Turning to `Cc1c2c(nn1-c1ccc([N+](=O)[O-])cc1)C[C@@H]1CC[C@@H]3[C@H](CC[C@]4(C)C(=O)CC[C@@H]34)[C@@]1(C)C2`, the inhibition result was “Active”.
The same measure, in the same setting: in the case of `Cc1ccc(-n2nc3c(c2C)C[C@@]2(C)[C@@H](CC[C@@H]4[C@@H]2CC[C@]2(C)[C@@H](O)CC[C@@H]42)C3)cc1` it was “Active”.

The test system of a further assay is DU-145. Briefly: Cytotoxicity against human DU-145 cells assessed as cell viability at 20 uM incubated for 72 hrs by resazurin dye based microplate reader assay. In kind it is functional. The following applies: read-out: Activity. (In general: Resazurin is reduced to fluorescent resorufin, in cell work by metabolically active cells.)
Take `Cc1c2c(nn1-c1ccc(Br)cc1)C[C@@H]1CC[C@@H]3[C@H](CC[C@]4(C)[C@@H](O)CC[C@@H]34)[C@@]1(C)C2`: the viability at 20 µM is 89%.
Take `Cc1ccc(-c2c3c(nn2C)C[C@@H]2CC[C@@H]4[C@H](CC[C@]5(C)[C@@H](O)CC[C@@H]45)[C@@]2(C)C3)cc1`: the viability at 20 µM is 98%.
Take `Cn1nc2c(c1-c1cccs1)C[C@@]1(C)[C@@H](CC[C@@H]3[C@@H]1CC[C@]1(C)C(=O)CC[C@@H]31)C2`: the viability at 20 µM turned out to be 100%.
With `Cc1ccc(-c2c3c(nn2C)C[C@@H]2CC[C@@H]4[C@H](CC[C@]5(C)C(=O)CC[C@@H]45)[C@@]2(C)C3)cc1`, the viability at 20 µM is at least 100%.
For `Cc1c2c(nn1-c1ccc([N+](=O)[O-])cc1)C[C@@H]1CC[C@@H]3[C@H](CC[C@]4(C)C(=O)CC[C@@H]34)[C@@]1(C)C2`, the viability at 20 µM is at least 100%.
On the same count and under the same terms, to `Cc1ccc(-n2nc3c(c2C)C[C@@]2(C)[C@@H](CC[C@@H]4[C@@H]2CC[C@]2(C)[C@@H](O)CC[C@@H]42)C3)cc1` belongs 93%.

Tested on in another assay: not listed separately
Description: Downregulation of AR protein expression in human LAPC4 cells assessed as AR levels at 10 uM incubated for 24 hrs by immunoblotting analysis.
Conditions: not given
In kind it is functional. In general terms: A western blot detects proteins with antibodies after separation by electrophoresis.
`Cc1ccc(-c2c3c(nn2C)C[C@@H]2CC[C@@H]4[C@H](CC[C@]5(C)[C@@H](O)CC[C@@H]45)[C@@]2(C)C3)cc1`: the Activity was found to be 96%.
On the same count and under the same terms, to `Cn1nc2c(c1-c1cccs1)C[C@@]1(C)[C@@H](CC[C@@H]3[C@@H]1CC[C@]1(C)C(=O)CC[C@@H]31)C2` belongs 92%.
Regarding `Cc1ccc(-c2c3c(nn2C)C[C@@H]2CC[C@@H]4[C@H](CC[C@]5(C)C(=O)CC[C@@H]45)[C@@]2(C)C3)cc1`, the Activity was determined as 92%.

In a further assay the test system is CWR22R. Description: Cytotoxicity against human 22Rv1 cells assessed as cell viability at 20 uM incubated for 72 hrs by resazurin dye based microplate reader assay. In kind it is functional. The following applies: read-out: Activity.
Consider `Cc1c2c(nn1-c1ccc(Br)cc1)C[C@@H]1CC[C@@H]3[C@H](CC[C@]4(C)[C@@H](O)CC[C@@H]34)[C@@]1(C)C2`, for which the viability at 20 µM is 50%.
On to `Cc1ccc(-c2c3c(nn2C)C[C@@H]2CC[C@@H]4[C@H](CC[C@]5(C)[C@@H](O)CC[C@@H]45)[C@@]2(C)C3)cc1`, for which the viability at 20 µM was 36%.
Same read-out and setting: in the case of `Cn1nc2c(c1-c1cccs1)C[C@@]1(C)[C@@H](CC[C@@H]3[C@@H]1CC[C@]1(C)C(=O)CC[C@@H]31)C2` it was 68%; in that of `Cc1ccc(-c2c3c(nn2C)C[C@@H]2CC[C@@H]4[C@H](CC[C@]5(C)C(=O)CC[C@@H]45)[C@@]2(C)C3)cc1`, 73%.
Same read-out and setting: in the case of `Cc1c2c(nn1-c1ccc([N+](=O)[O-])cc1)C[C@@H]1CC[C@@H]3[C@H](CC[C@]4(C)C(=O)CC[C@@H]34)[C@@]1(C)C2` it was 57%; in that of `Cc1ccc(-n2nc3c(c2C)C[C@@]2(C)[C@@H](CC[C@@H]4[C@@H]2CC[C@]2(C)[C@@H](O)CC[C@@H]42)C3)cc1`, 37%.

The test system of a further assay is LAPC4. Briefly: Cytotoxicity against human LAPC4 cells assessed as cell viability at 20 uM incubated for 72 hrs by resazurin dye based microplate reader assay. The format is functional. The following applies: read-out: Activity.
On to `Cc1c2c(nn1-c1ccc(Br)cc1)C[C@@H]1CC[C@@H]3[C@H](CC[C@]4(C)[C@@H](O)CC[C@@H]34)[C@@]1(C)C2`, for which the viability at 20 µM was found to be 52%.
On the same count and under the same terms, in the case of `Cc1ccc(-c2c3c(nn2C)C[C@@H]2CC[C@@H]4[C@H](CC[C@]5(C)[C@@H](O)CC[C@@H]45)[C@@]2(C)C3)cc1` it was 52%; in that of `Cn1nc2c(c1-c1cccs1)C[C@@]1(C)[C@@H](CC[C@@H]3[C@@H]1CC[C@]1(C)C(=O)CC[C@@H]31)C2`, 31%; in that of `Cc1ccc(-c2c3c(nn2C)C[C@@H]2CC[C@@H]4[C@H](CC[C@]5(C)C(=O)CC[C@@H]45)[C@@]2(C)C3)cc1`, 34%.
Still for that read-out and setting: in the case of `Cc1c2c(nn1-c1ccc([N+](=O)[O-])cc1)C[C@@H]1CC[C@@H]3[C@H](CC[C@]4(C)C(=O)CC[C@@H]34)[C@@]1(C)C2` it was 48%; in that of `Cc1ccc(-n2nc3c(c2C)C[C@@]2(C)[C@@H](CC[C@@H]4[C@@H]2CC[C@]2(C)[C@@H](O)CC[C@@H]42)C3)cc1`, 88%.
